{
  "source": "patent US11572590B2",
  "about": "“Methods for evaluating tumor cell spheroids using 3D microfluidic cell culture device” (Dana-Farber Cancer Institute, Inc., priority 2017, dated 2023)",
  "key": {"[1]": {"biological_target": "T1, off-target kinases (Homo sapiens, UniProt O43318)", "T1 sequence (O43318 1-606)": "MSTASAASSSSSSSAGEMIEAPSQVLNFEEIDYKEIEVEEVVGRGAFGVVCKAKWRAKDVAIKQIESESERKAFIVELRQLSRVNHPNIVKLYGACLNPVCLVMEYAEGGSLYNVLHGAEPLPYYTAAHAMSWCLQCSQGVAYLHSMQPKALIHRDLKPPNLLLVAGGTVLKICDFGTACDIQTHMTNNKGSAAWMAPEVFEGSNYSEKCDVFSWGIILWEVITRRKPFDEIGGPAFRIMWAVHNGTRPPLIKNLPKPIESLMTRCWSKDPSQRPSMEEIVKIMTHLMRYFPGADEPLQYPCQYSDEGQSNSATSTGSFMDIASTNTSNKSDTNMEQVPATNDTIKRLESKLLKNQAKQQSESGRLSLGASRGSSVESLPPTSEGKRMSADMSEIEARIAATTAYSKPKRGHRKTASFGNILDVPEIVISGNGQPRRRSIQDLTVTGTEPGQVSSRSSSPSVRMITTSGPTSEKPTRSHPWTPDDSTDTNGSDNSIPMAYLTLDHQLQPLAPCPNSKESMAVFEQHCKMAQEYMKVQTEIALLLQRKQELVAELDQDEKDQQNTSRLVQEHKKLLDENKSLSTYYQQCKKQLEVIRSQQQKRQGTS", "experiment": "SelectScreen Kinase Profiling, single point inhibition and IC50 for off-target kinases", "format": "biochemical", "set-up": "other: MAP3K7/MAP3K7IP1 (TAK1-TAB1); 1000 μM; fused on or other part: TAB1 (MAP3K7IP1, Q15750), either fused to TAK1 or present as a separate partner chain", "conditions": "MAP3K7/MAP3K7IP1 (TAK1-TAB1); LanthaScreen Binding; 1000 μM", "procedure": "Biochemical single point inhibition and IC50 concentrations for TBK1, IKKε (IKBKE), and off-target kinases were determined at ThermoFisher Scientific using SelectScreen Kinase Profiling Services (Madison, Wis., USA) (Tables S4A and S4B-1-7). To determine cellular potency, the human colorectal cancer carcinoma cell line HCT116 (ATCC, Manassas, Va.) was maintained in T175 flasks in complete RPMI medium; RPMI 1640 supplemented with 10% FBS, 1× Penicillin-Streptomycin solution and 1×MEM (non-essential amino acids). HCT116 cells were grown to 90-95% confluency in T175 flasks containing complete RPMI medium and transfected in bulk using Lipofectamine 2000 (Invitrogen, Carlsbad, Calif.) with 70 μg of ISG54-luciferase reporter plasmid (Elim Biopharmaceuticals Inc., Hayward, Calif.). The reporter plasmid contains a luciferase gene expression cassette under the transcriptional regulation of the promoter of the human interferon stimulated gene 54 (ISG54). […] The assay plates were incubated for 5 hours at 37° C., followed by addition of One-Glo luciferase firefly reagent (Promega, Madison, Wis.) at 1:1 volume/well and luminescence was measured in an EnVision Multilabel Plate Reader (PerkinElmer, Santa Clara, Calif.). The EC50 values were calculated from the fit of the dose-response curves to a four-parameter equation. […]"}, "[2]": {"system": "human CD4+ and CD8+ T cells", "experiment": "IFNγ secretion by anti-CD3/anti-CD28 stimulated T cells", "format": "cell-based", "conditions": "dose-titration, 96 hours", "procedure": "Freshly isolated human CD4+ and CD8+ T cells were obtained from AllCells (Alameda, Calif., USA). Cells were spun down and resuspended in serum free Xvivo15 media (Lonza Walkersville, Inc., Chicago, Ill., USA) supplemented with 5 ng/mL […] and incubated overnight at 37° C. Cells were plated on anti-CD3 coated plates (5 μg/mL OKT3, eBioscience, Dallas, Tex., USA, overnight) with 2 μg/mL anti-CD28 (eBioscience, Dallas, Tex., USA). Cells are treated in replicate plates with a dose-titration of Compound 1 for 24 hours for IL-2 and 96 hours for IFNγ. IL-2 and IFNγ in the supernatant were measured using single- or multi-plex immunoassay (Mesoscale Discovery, Rockville, Md., USA). Jurkat T cell leukemia cells (clone E61 obtained from ATCC) plated on anti-CD3 coated plates were treated with a dose titration of Compound 1 for 24 hours. IL-2 in the supernatant was measured as described above."}},
  "data": [
    {"smiles": "N#Cc1cc(-c2ncnc(Nc3ccc(N4CCN(C5COC5)CC4)cc3)n2)ccc1OC1CCOCC1", "note": "[Compound 1, 5-(4-((4-(4-(oxetan-3-yl)piperazin-1-yl)phenyl)amino)-1,3,5-triazin-2-yl)-2-((tetrahydro-2H-pyran-4-yl)oxy)benzonitrile]", "values": [
      {"measurement": "% Inhibition 1", "setting": "[1]", "result": 22, "unit": "%"},
      {"measurement": "secretion of IFN-γ from purified CD4+ and CD8+ T cells", "setting": "[2]", "result": "enhanced secretion"}
    ]}
  ]
}
